Biological target: NAMPT (recombinant human) (Homo sapiens, UniProt P43490)
Experiment: biolayer interferometry
Assay type: binding

NAMPT (recombinant human), sequence (P43490 whole entry): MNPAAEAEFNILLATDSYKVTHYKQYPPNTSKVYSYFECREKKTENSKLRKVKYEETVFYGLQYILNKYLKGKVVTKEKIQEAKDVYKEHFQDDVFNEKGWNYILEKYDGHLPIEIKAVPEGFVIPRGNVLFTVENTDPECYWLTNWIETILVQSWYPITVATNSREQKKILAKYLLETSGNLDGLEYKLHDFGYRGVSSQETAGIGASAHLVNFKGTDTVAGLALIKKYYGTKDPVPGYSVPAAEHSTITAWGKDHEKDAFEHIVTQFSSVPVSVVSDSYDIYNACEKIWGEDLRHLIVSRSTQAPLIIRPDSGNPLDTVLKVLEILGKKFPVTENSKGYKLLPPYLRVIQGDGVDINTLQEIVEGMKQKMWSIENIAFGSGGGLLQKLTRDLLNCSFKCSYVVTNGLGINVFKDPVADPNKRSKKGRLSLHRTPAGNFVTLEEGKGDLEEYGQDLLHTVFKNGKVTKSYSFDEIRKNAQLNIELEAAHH

Question: Which Kd does the source give for `O=C(CC(C(=O)O)c1c[nH]c2ccccc12)c1ccc(F)cc1F` (racemic) [MA-5] here?
Answer: 106 µM

Source: publication doi:10.1101/2025.04.18.649305v1 (biorxiv, 2025)
